Measured values as given in PubChem BioAssay AID1963825 (Molecular Pharmacology Branch, DTP, NCI, 2024).

Assay: Anticancer human tumor 997537-175-T-J1-PDC patient-derived colon adenocarcinoma cell line growth inhibition [POLQ]
Conditions: 997537-175-T-J1-PDC complex spheroid viability, combination with POLQ inhibitors; for IC50: curve of first compound; for viability, T/C: stronger effect = lower value; active means viability on the fitted dose curve at most 10% of control; inactive means the rest
How it was run: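 PDC + HUVEC + MSC complex spheroids; POLQ inhibitors ± partner drugs; top conc. at/near clinical Cmax, else 10 microM (SN-38 1 microM), half-log dilutions; 37 degrees C, 5% CO2.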

[1] = second compound 0.0316 µM, first compound 0.0316 µM
[2] = second compound 0.0316 µM, first compound 0.1 µM
[3] = second compound 0.0316 µM, first compound 0.316 µM
[4] = second compound 0.0316 µM, first compound 1 µM
[5] = second compound 0.1 µM, first compound 0.0316 µM
[6] = second compound 0.1 µM, first compound 0.1 µM
[7] = second compound 0.1 µM, first compound 0.316 µM
[8] = second compound 0.1 µM, first compound 1 µM
[9] = second compound 0.316 µM, first compound 0.0316 µM
[10] = second compound 0.316 µM, first compound 0.1 µM
[11] = second compound 0.316 µM, first compound 0.316 µM
[12] = second compound 0.316 µM, first compound 1 µM
[13] = second compound 1 µM, first compound 0.0316 µM
[14] = second compound 1 µM, first compound 0.1 µM
[15] = second compound 1 µM, first compound 0.316 µM
[16] = second compound 1 µM, first compound 1 µM
[17] = second compound 3.16 µM, first compound 0.0316 µM
[18] = second compound 3.16 µM, first compound 0.1 µM
[19] = second compound 3.16 µM, first compound 0.316 µM
[20] = second compound 3.16 µM, first compound 1 µM
[21] = second compound 10 µM, first compound 0.0316 µM
[22] = second compound 10 µM, first compound 0.1 µM
[23] = second compound 10 µM, first compound 0.316 µM
[24] = second compound 10 µM, first compound 1 µM
[25] = second compound 0.0316 µM, first compound 3.16 µM
[26] = second compound 0.0316 µM, first compound 10 µM
[27] = second compound 0.1 µM, first compound 3.16 µM
[28] = second compound 0.1 µM, first compound 10 µM
[29] = second compound 0.316 µM, first compound 3.16 µM
[30] = second compound 0.316 µM, first compound 10 µM
[31] = second compound 1 µM, first compound 3.16 µM
[32] = second compound 1 µM, first compound 10 µM
[33] = second compound 3.16 µM, first compound 3.16 µM
[34] = second compound 3.16 µM, first compound 10 µM
[35] = second compound 10 µM, first compound 3.16 µM
[36] = second compound 10 µM, first compound 10 µM
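Further: luminescence signal used as a surrogate for viable cells; spheroids exposed to drugs for seven days before readout.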

COc1cccc(OCCCN)c1-c1cc(Nc2cnc(C#N)cn2)n[nH]1 + Nc1ccc(C#CCN(C(=O)Cc2ncc(C(F)(F)F)cc2C(F)(F)F)c2ccc(F)cc2)nn1
0.0213 µM: IC50 (second compound 1 µM)
0.0544 µM: IC50 (second compound 0.316 µM)
0.11 µM: IC50 (second compound 0.0316 µM)
0.072 µM: IC50 (second compound 0.1 µM)
inactive: viability, T/C (second compound 0.0316 µM, first compound 0.00316 µM) 100% | viability, T/C (second compound 0.0316 µM, first compound 0.01 µM) 90.2% | viability, T/C [1] 70.5% | viability, T/C [2] 42.3% | viability, T/C [3] 44% | viability, T/C [4] 17.7% | viability, T/C (second compound 0.1 µM, first compound 0.00316 µM) 89.1% | viability, T/C (second compound 0.1 µM, first compound 0.01 µM) 96.8% | viability, T/C [5] 70.5% | viability, T/C [6] 43% | viability, T/C [7] 22.2% | viability, T/C [8] 23.2% | viability, T/C (second compound 0.316 µM, first compound 0.00316 µM) 103% | viability, T/C (second compound 0.316 µM, first compound 0.01 µM) 89.5% | viability, T/C [9] 61.4% | viability, T/C [10] 40.5% | viability, T/C [11] 18% | viability, T/C [12] 41.9% | viability, T/C (second compound 1 µM, first compound 0.00316 µM) 89.8% | viability, T/C (second compound 1 µM, first compound 0.01 µM) 61.1% | viability, T/C [13] 50.3% | viability, T/C [14] 21.8% | viability, T/C [15] 40.6% | viability, T/C [16] 36.2% | viability, T/C (second compound 3.16 µM, first compound 0.00316 µM) 88.4% | viability, T/C (second compound 3.16 µM, first compound 0.01 µM) 90.8% | viability, T/C [17] 65.8% | viability, T/C [18] 24.2% | viability, T/C [19] 20.8% | viability, T/C [20] 21.1% | viability, T/C (second compound 10 µM, first compound 0.00316 µM) 84% | viability, T/C (second compound 10 µM, first compound 0.01 µM) 85.1% | viability, T/C [21] 30.4% | viability, T/C [22] 24.9% | viability, T/C [23] 34.1% | viability, T/C [24] 20.5%
0.0209 µM: IC50 (second compound 10 µM)
0.0488 µM: IC50 (second compound 3.16 µM)

COc1ccc([C@@H](O)c2cc(-c3ncnc4cc(N5CCOCC5)ccc34)c(F)cc2Cl)nn1 + Nc1ccc(C#CCN(C(=O)Cc2ncc(C(F)(F)F)cc2C(F)(F)F)c2ccc(F)cc2)nn1
> 10 µM: IC50 (second compound 0.0316 µM) | IC50 (second compound 0.1 µM) | IC50 (second compound 0.316 µM) | IC50 (second compound 1 µM) | IC50 (second compound 3.16 µM) | IC50 (second compound 10 µM)
inactive: viability, T/C [1] 95% | viability, T/C [2] 110% | viability, T/C [3] 100% | viability, T/C [4] 101% | viability, T/C [25] 85% | viability, T/C [26] 74.3% | viability, T/C [5] 98.8% | viability, T/C [6] 110% | viability, T/C [7] 99% | viability, T/C [8] 98.3% | viability, T/C [27] 71.5% | viability, T/C [28] 71% | viability, T/C [9] 110% | viability, T/C [10] 109% | viability, T/C [11] 91% | viability, T/C [12] 99.1% | viability, T/C [29] 96.1% | viability, T/C [30] 65.6% | viability, T/C [13] 96% | viability, T/C [14] 98.2% | viability, T/C [15] 94.7% | viability, T/C [16] 91.6% | viability, T/C [31] 79.3% | viability, T/C [32] 94.2% | viability, T/C [17] 107% | viability, T/C [18] 99.1% | viability, T/C [19] 96.7% | viability, T/C [20] 96.6% | viability, T/C [33] 87.6% | viability, T/C [34] 82.1% | viability, T/C [21] 99.5% | viability, T/C [22] 107% | viability, T/C [23] 95.7% | viability, T/C [24] 95.8% | viability, T/C [35] 85.3% | viability, T/C [36] 92.7%

CC(C)n1c(=O)n(C)c2cnc3cc(F)c(-c4ccc(OCCCN5CCCCC5)nc4)cc3c21 + COC1C(OC(N)=O)C(O)C(Oc2ccc3c(O)c(NC(=O)c4ccc(O)c(CC=C(C)C)c4)c(=O)oc3c2C)OC1(C)C
> 10 µM: IC50 (second compound 0.0316 µM) | IC50 (second compound 0.1 µM) | IC50 (second compound 0.316 µM) | IC50 (second compound 1 µM) | IC50 (second compound 3.16 µM) | IC50 (second compound 10 µM)
inactive: viability, T/C [1] 79% | viability, T/C [2] 104% | viability, T/C [3] 106% | viability, T/C [4] 89.6% | viability, T/C [25] 102% | viability, T/C [26] 89.5% | viability, T/C [5] 103% | viability, T/C [6] 102% | viability, T/C [7] 102% | viability, T/C [8] 96% | viability, T/C [27] 93.8% | viability, T/C [28] 88.1% | viability, T/C [9] 83.8% | viability, T/C [10] 102% | viability, T/C [11] 114% | viability, T/C [12] 80.4% | viability, T/C [29] 89.2% | viability, T/C [30] 77.7% | viability, T/C [13] 97.6% | viability, T/C [14] 97.3% | viability, T/C [15] 102% | viability, T/C [16] 99.6% | viability, T/C [31] 93.2% | viability, T/C [32] 88% | viability, T/C [17] 98.4% | viability, T/C [18] 97.8% | viability, T/C [19] 90.7% | viability, T/C [20] 88% | viability, T/C [33] 80% | viability, T/C [34] 89.8% | viability, T/C [21] 103% | viability, T/C [22] 95.8% | viability, T/C [23] 90.9% | viability, T/C [24] 82.6% | viability, T/C [35] 80.1% | viability, T/C [36] 85.5%
